Legend:
human FAK = molecular target: T1, human FAK (Homo sapiens, UniProt Q05397); assay: FAK autophosphorylation inhibition, time-resolved fluorescence test (HTRF); assay type: biochemical; conditions: 15 μM ATP, 1 hour at 37° C., read-out: FAK IC 50
T1 construct: The whole cDNA of human FAK, the N-terminal end of which has been labelled with histidine; made in house; host or cells: baculovirus expression system (pFastBac HTc)
Description: The inhibitory activity of the compounds on FAK is determined by measuring the inhibition of autophosphorylation of the enzyme using a time-resolved fluorescence test (HTRF).
The whole cDNA of human FAK, the N-terminal end of which has been labelled with histidine, was cloned in a pFastBac HTc baculovirus expression vector. The protein was expressed and purified to about 70% homogeneity.
The kinase activity is determined by incubating the enzyme (6.6 μg/mL) with different concentrations of test compound in a 50 mM Hepes pH=7.2, 10 mM MgCl2, 100 μm Na3VO4, 15 μM ATP buffer for 1 hour at 37° C. The enzymatic reaction is stopped by adding Hepes pH=7.0 buffer containing 0.4 mM KF, 133 mM EDTA, 0.1% BSA and the labelling is performed, for 1 to 2 hours at room temperature, by adding to this buffer an anti-Histidine antibody labelled with XL665 and a tyrosine phosphospecific monoclonal antibody conjugated to europium cryptate (Eu—K). The characteristics of the two fluorophores are available in G. Mathis et al., Anticancer Research, 1997, 17, pages 3011-3014. The energy transfer from the excited europium cryptate to the acceptor XL665 is proportional to the degree of autophosphorylation of FAK. The long-lasting signal specific for XL-665 is measured in a Packard Discovery plate counter. All the tests are performed in duplicate and the average of the two tests is calculated. The inhibition of the autophosphorylation activity of FAK with compounds of the invention is expressed as a percentage of inhibition relative to a control whose activity is measured in the absence of test compound. To calculate the percentage inhibition, the ratio [signal at 665 nm/signal at 620 nm] is considered.

human KDR enzyme = molecular target: T2, human KDR enzyme (Homo sapiens, UniProt P35968); assay: KDR substrate phosphorylation inhibition, scintillation technique; assay type: biochemical; conditions: GST-KDR cytoplasmic domain, substrate SH2-SH3 fragment of PLCγ, 33P-ATP, one hour at 37° C.; read-out: KDR IC 50
T2 construct: The cytoplasmic domain of the human KDR enzyme was cloned in the form of a GST fusion protein; GST; made in house; host or cells: SF21 insect cells (baculovirus, pFastBac)
T2 sequence (P35968 786-1356 limits assumed): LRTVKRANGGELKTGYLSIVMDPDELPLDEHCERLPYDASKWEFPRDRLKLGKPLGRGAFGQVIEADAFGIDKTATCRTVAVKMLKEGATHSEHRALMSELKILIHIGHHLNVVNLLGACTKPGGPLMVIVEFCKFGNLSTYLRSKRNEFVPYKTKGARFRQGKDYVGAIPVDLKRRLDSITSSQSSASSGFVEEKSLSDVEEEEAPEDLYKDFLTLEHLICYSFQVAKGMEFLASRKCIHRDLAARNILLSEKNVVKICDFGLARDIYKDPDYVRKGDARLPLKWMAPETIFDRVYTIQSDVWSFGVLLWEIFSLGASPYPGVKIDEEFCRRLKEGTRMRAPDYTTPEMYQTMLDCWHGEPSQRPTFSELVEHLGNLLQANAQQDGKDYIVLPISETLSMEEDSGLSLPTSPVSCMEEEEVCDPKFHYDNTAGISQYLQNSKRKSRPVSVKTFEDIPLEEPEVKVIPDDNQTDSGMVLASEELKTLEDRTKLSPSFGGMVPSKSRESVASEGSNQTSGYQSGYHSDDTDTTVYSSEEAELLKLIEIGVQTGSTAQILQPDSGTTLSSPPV
Description: The inhibitory effect of the compounds is determined in an in vitro test of phosphorylation of substrate with the enzyme KDR via a scintillation technique (96-well plate, NEN).
The cytoplasmic domain of the human KDR enzyme was cloned in the form of a GST fusion protein in the pFastBac baculovirus expression vector.
The KDR kinase activity is measured in a 20 mM MOPS, 10 mM MgCl2, 10 mM MnCl2, 1 mM DTT, 2.5 mM EGTA, 10 mM b-glycerophosphate, pH=7.2 buffer, in the presence of 10 mM MgCl2, 100 μm Na3VO4, 1 mM NaF. 10 μl of the compound are added to 70 μL of kinase buffer containing 100 ng of KDR enzyme at 4° C. The reaction is initiated by adding 20 μL of solution containing 2 μg of substrate (SH2-SH3 fragment of PLCγ expressed in the form of a GST fusion protein), 2 μCi of γ^33P[ATP] and 2 μm of cold ATP. After incubation for one hour at 37° C., the reaction is stopped by adding 1 volume (100 μl) of 200 mM EDTA. The incubation buffer is removed, and the wells are washed three times with 300 μL of PBS. The radioactivity in each well is measured using a Top Count NXT radioactivity counter (Packard).
The background is determined by measuring the radioactivity in four different wells containing radioactive ATP and the substrate alone.
A total activity control is measured in four different wells containing all the reagents (γ^33P-[ATP], KDR and substrate PLCγ), but in the absence of compound.
The inhibition of the KDR activity with the compound of the invention is expressed as a percentage of inhibition of the control activity determined in the absence of compound.

human Tie2 = molecular target: T3, human Tie2 (Homo sapiens, UniProt Q02763); assay: Tie2 phosphorylation of PLC inhibition, FlashPlate radioactivity; assay type: biochemical; conditions: GST-Tie2 intracellular domain 776-1124, substrate GST-PLC, 33P-ATP, one hour at 37° C.; read-out: TIE2 IC 50
T3 construct: the amino acids of the intracellular domain 776-1124; made in house; host or cells: baculovirus expression system (pFastBacGT)
T3 sequence (Q02763 776-1124): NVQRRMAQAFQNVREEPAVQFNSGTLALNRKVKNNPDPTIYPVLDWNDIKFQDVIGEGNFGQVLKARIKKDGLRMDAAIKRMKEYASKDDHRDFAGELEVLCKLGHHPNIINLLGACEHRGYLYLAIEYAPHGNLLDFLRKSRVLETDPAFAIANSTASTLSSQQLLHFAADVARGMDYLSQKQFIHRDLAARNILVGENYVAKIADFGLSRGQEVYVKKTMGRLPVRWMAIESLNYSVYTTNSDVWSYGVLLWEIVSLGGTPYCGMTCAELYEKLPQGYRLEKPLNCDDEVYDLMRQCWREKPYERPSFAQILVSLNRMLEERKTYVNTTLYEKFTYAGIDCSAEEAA
Description: This sequence was introduced into a pFastBacGT baculovirus expression vector in the form of a GST fusion protein. The inhibitory effect of the molecules is determined in a test of phosphorylation of PLC with Tie2 in the presence of GST-Tie2 purified to about 80% homogeneity. The substrate is composed of the SH2-SH3 fragments of PLC expressed in the form of a GST fusion protein.
The kinase activity of Tie2 is measured in a MOPS 20 mM pH 7.2 buffer, containing 10 mM MgCl2, 10 mM MnCl2, 1 mM DTT, 10 mM of glycerophosphate. In a 96-well FlashPlate plate maintained on ice, a reaction mixture is deposited, composed of 70 μL of kinase buffer containing 100 ng of enzyme GST-Tie2 per well. Next, 10 μL of the test molecule diluted in DMSO to a maximum concentration of 10% are added. For a given concentration, each measurement is performed four times. […] After incubation for one hour at 37° C., the reaction is stopped by adding 1 volume (100 μl) of EDTA 200 mM. After removal of the incubation buffer, the wells are washed three times with 300 μL of PBS. The radioactivity is measured on a MicroBeta1450 Wallac.
The inhibition of the Tie2 activity is calculated and expressed as a percentage of inhibition relative to the control activity determined in the absence of compound.

T1 sequence (Q05397 whole entry): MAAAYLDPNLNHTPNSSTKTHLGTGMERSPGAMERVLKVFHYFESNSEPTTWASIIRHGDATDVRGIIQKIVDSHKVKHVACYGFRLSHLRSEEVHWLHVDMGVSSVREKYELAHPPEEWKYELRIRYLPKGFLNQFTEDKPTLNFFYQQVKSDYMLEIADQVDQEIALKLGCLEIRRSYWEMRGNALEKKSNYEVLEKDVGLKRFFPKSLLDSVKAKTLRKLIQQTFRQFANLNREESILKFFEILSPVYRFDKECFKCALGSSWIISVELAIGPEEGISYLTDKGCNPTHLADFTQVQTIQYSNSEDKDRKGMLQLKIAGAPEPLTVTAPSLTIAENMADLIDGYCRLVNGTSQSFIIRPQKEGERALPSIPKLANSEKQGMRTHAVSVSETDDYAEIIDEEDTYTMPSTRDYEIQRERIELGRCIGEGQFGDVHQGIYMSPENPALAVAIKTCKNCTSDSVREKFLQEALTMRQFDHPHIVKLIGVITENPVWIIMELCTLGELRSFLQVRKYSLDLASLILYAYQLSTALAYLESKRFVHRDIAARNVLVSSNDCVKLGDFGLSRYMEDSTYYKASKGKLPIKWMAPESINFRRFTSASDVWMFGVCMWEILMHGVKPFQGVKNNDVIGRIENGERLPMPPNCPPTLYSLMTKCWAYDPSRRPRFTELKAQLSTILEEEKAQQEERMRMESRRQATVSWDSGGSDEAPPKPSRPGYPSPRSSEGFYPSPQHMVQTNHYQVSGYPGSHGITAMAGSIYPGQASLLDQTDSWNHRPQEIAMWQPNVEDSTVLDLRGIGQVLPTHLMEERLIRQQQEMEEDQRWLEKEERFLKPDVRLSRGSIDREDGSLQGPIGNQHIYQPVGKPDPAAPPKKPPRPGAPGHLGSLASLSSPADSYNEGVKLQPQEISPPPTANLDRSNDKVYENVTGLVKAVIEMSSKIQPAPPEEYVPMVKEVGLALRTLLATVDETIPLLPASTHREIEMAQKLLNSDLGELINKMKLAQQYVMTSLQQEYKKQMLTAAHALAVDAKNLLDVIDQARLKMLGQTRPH

IC50 (human FAK) | IC50 (human KDR enzyme) | IC50 (human Tie2) | melting point | SMILES
80 nM | 218 nM | 4 nM |  | Nc1n[nH]c2ccnc(-c3ccc(NC(=O)Nc4cc(C(F)(F)F)ccc4F)nc3)c12 [Example 4, 1-[5-(3-Amino-1H-pyrazolo[4,3-c]pyrid-4-yl)pyrid-2-yl]-3-(2-fluoro-5-trifluoromethylphenyl)urea]
 | 60 nM | 10 nM | 200 °C | COc1ccc(C(F)(F)F)cc1NC(=O)Nc1ccc(-c2nccc3[nH]nc(N)c23)cc1 [Example 10, 1-[4-(3-Amino-1H-pyrazolo[4,3-c]pyrid-4-yl)phenyl]-3-(2-methoxy-5-trifluoromethylphenyl)urea]
 |  | 9 nM | 196 °C | Nc1n[nH]c2cncc(-c3ccc(NC(=O)Nc4cc(C(F)(F)F)ccc4F)cc3)c12 [Example 7, 1-[4-(3-Amino-1H-pyrazolo[3,4-c]pyrid-4-yl)phenyl]-3-(2-fluoro-5-trifluoromethylphenyl)urea]
264 nM |  |  |  | Nc1n[nH]c2nccc(-c3ccc(NC(=O)Nc4cc(C(F)(F)F)ccc4F)cc3)c12 [Example 1, 1-[4-(3-Amino-1H-pyrazolo[3,4-b]pyrid-4-yl)phenyl]-3-(2-fluoro-5-trifluoromethylphenyl)urea]
150 nM | 940 nM | 23 nM |  | Nc1n[nH]c2nccc(-c3ccc(NC(=O)Nc4cc(C(F)(F)F)ccc4F)nc3)c12 [Example 2, 1-[5-(3-Amino-1H-pyrazolo[3,4-b]pyrid-4-yl)pyrid-2-yl]-3-(2-fluoro-5-trifluoromethylphenyl)urea]
 |  |  | > 265 °C | Cc1ccc(F)cc1NC(=O)Nc1ccc(-c2nccc3[nH]nc(N)c23)cc1 [Example 34, 1-[4-(3-Amino-1H-pyrazolo[4,3-c]pyrid-4-yl)phenyl]-3-(5-fluoro-2-methylphenyl)urea]
73 nM | 33 nM | 5 nM |  | Nc1n[nH]c2ccnc(-c3ccc(NC(=O)Nc4cc(C(F)(F)F)ccc4F)cc3)c12 [Example 3, 1-[4-(3-Amino-1H-pyrazolo[4,3-c]pyrid-4-yl)phenyl]-3-(2-fluoro-5-trifluoromethylphenyl)urea]
 |  |  | 228 °C | COc1ccc(C(F)(F)F)cc1NC(=O)Nc1ccc(-c2nccc3[nH]nc(N)c23)cn1 [Example 9, 1-[5-(3-Amino-1H-pyrazolo[4,3-c]pyrid-4-yl)pyrid-2-yl]-3-(2-methoxy-5-trifluoromethylphenyl)urea]
 |  |  | 188 °C | Nc1n[nH]c2ccnc(-c3ccc(NC(=O)Nc4ccccc4)cc3)c12 [Example 8, 1-[4-(3-Amino-1H-pyrazolo[4,3-c]pyrid-4-yl]phenyl]-3-phenylurea]
190 nM | 1860 nM | 27 nM | > 260 °C | COc1ccc(C(F)(F)F)cc1NC(=O)Nc1ccc(-c2ccnc3[nH]nc(N)c23)cn1 [Example 6, 1-[5-(3-Amino-1H-pyrazolo[3,4-b]pyrid-4-yl)pyrid-2-yl]-3-(2-methoxy-5-trifluoromethylphenyl)urea]
 |  |  | 182 °C | CC(=O)Nc1ccc(C(F)(F)F)cc1NC(=O)Nc1ccc(-c2nccc3[nH]nc(N)c23)cc1 [Example 11, N-(2-{3-[4-(3-Amino-1H-pyrazolo[4,3-c]pyrid-4-yl)phenyl]ureido}-4-trifluoromethylphenyl)acetamide]
 |  |  | 210 °C | COc1ccc(C(F)(F)F)cc1NC(=O)Nc1ccc(-c2cncc3[nH]nc(N)c23)cc1 [Example 38, 1-[4-(3-Amino-1H-pyrazolo[3,4-c]pyrid-4-yl)phenyl]-3-(2-methoxy-5-trifluoromethylphenyl]urea]
 |  |  | 187 °C | Nc1n[nH]c2ccnc(-c3ccc(NC(=O)Nc4cc(F)ccc4F)cc3)c12 [Example 32, 1-[4-(3-Amino-1H-pyrazolo[4,3-c]pyrid-4-yl)phenyl]-3-(2,5-difluorophenyl)urea]
 | 24 nM | 21 nM |  | CCOc1ccc(C(F)(F)F)cc1NC(=O)Nc1ccc(-c2ccnc3[nH]nc(N)c23)cc1 [Example 14, 1-[4-(3-Amino-1H-pyrazolo[3,4-b]pyrid-4-yl)phenyl]-3-(2-ethoxy-5-trifluoromethylphenyl)urea]
286 nM | 49 nM | 15 nM | > 260 °C | COc1ccc(C(F)(F)F)cc1NC(=O)Nc1ccc(-c2ccnc3[nH]nc(N)c23)cc1 [Example 5, 1-[4-(3-Amino-1H-pyrazolo[3,4-b]pyrid-4-yl)phenyl]-3-(2-methoxy-5-trifluoromethylphenyl)urea]
 |  |  | 195 °C | Cc1ccc(F)c(NC(=O)Nc2ccc(-c3nccc4[nH]nc(N)c34)cc2)c1 [Example 27, 1-[4-(3-Amino-1H-pyrazolo[4,3-c]pyrid-4-yl)phenyl]-3-(2-fluoro-5-methylphenyl-)urea]
 |  |  | 181 °C | COc1ccc(C(C)(C)C)cc1NC(=O)Nc1ccc(-c2nccc3[nH]nc(N)c23)cc1 [Example 29, 1-[4-(3-Amino-1H-pyrazolo[4,3-c]pyrid-4-yl)phenyl]-3-(5-tert-butyl-2-methoxyphenyl)urea]
